Measurements taken from article PMC12516686, “Design of 2‑Aminobenzothiazole Derivatives Targeting Trypanosomatid PTR1 by a Multidisciplinary Fragment Hybridization Approach” (Journal of Medicinal Chemistry, 2025).
Where two headings read alike, the source gives them in different places.

Columns and labels:
hERG = target: T1, hERG (Homo sapiens, UniProt Q12809); experiment: hERG liability assay
T1 construct: purchased Invitrogen

CYP3A4 = target: T2, CYP3A4 (Homo sapiens, UniProt P08684); experiment: Cytochrome P450 assay (P450-Glo), isoform 3A4; type: in vitro ADME
T2 construct: purchased Promega; host or cells: baculovirus-infected insect cells
Description: (§1) 3A4. The Promega P450-Glo assay platform was used with microsomal preparations of
(§2) cytochrome P450s from baculovirus-infected insect cells. […]

CYP2C19 = target: T3, CYP2C19 (Homo sapiens, UniProt P33261); experiment: Cytochrome P450 assay (P450-Glo), isoform 2C19; type: in vitro ADME
T3 construct: purchased Promega; host or cells: baculovirus-infected insect cells
Description: as §1, §2

CYP2D6 = target: T4, CYP2D6 (Homo sapiens, UniProt P10635); experiment: Cytochrome P450 assay (P450-Glo), isoform 2D6; type: in vitro ADME
T4 construct: purchased Promega; host or cells: baculovirus-infected insect cells
Description: as §1, §2

[1] = Cytotoxicity assay (MTT) on THP-1-derived macrophages; type: cell-based, Human; conditions: human, THP-1-derived macrophages
Experimental: Human leukemia cell line THP-1 (ATCC TIB202) cells were cultured in RPMI-1640 medium supplemented with 10% heat-inactivated fetal bovine serum (FBS), 2 mM L-glutamine, 100 IU/mL penicillin/streptomycin, and 20 mM HEPES. The cell line was maintained in a humidified incubator at 37 °C with 5% CO2. Subcultures were performed every 3 days in 20 mL of media at a concentration of 2 × 10^5 cells/mL in a T75 flask. All cell culture reagents were purchased from Lonza Bioscience (Morrisville, NC).
The cytotoxicity of the compounds on THP-1-derived macrophages was assessed using the colorimetric MTT assay (3-(4,5-dimethylthiazol-2-yl)-2,5-diphenyl tetrazolium bromide) as described elsewhere. THP-1 cells were suspended in RPMI complete medium at a density of 1 × 10^6 cells/mL, and 100 μL/well was seeded in a 96-well plate. The cells were differentiated into macrophages by adding 40 ng/mL of phorbol-myristate 13-acetate (PMA, Sigma, Saint Louis, MI, USA) for 24 h, followed by replacement with fresh medium for another 24 h. Subsequently, the cells were incubated with 100 μL of compounds, ranging from 100 to 12.5 μM, diluted in RPMI complete medium. Each condition was tested in triplicate. After 72 h of incubation at 37 °C with 5% CO2, the medium was removed, and 200 μL of 0.5 mg/mL MTT solution diluted in RPMI was added. The plates were incubated for an additional 4 h, after which 160 μL of the media was removed and replaced with 160 μL of 2-propanol. Absorbance was read at 570 nm using a Synergy 2 Multi-Mode Reader (Biotek, Winooski, VT, USA). Cytotoxicity was evaluated by presenting the CC50 (the concentration of the drug that reduces cell viability by 50%) interval or by determining the CC50 value through nonlinear regression analysis using GraphPad Prism version 8.1.1 for Windows (GraphPad Software, San Diego, CA, USA). Results represent the average of at least three independent experiments.

[2] = Cytotoxicity against A549 cells (CellTiter-Glo); type: cell-based; conditions: human, A549 cells; for GI50: read-out: A549 cytotoxicity GI50 (50% growth inhibition)
Experimental: (§3) Cytotoxicity against A549 cells. The CellTiter-Glo assay from Promega was used. It detects the cellular ATP content, which is directly proportional to the number of viable cells. The A549 cells were obtained from DSMZ (German Collection of Microorganisms and Cell Cultures, Braunschweig, Germany) and cultured in Dulbecco’s modified Eagle medium (DMEM) with FCS (10% v/v), streptomycin (100 µg/mL), and penicillin G (100 U/mL)23. […]

A549 cells = experiment: Cytotoxicity against A549 cells (CellTiter-Glo); type: cell-based
Experimental: as §3

CYP1A2 = target: T5, CYP1A2 (Homo sapiens, UniProt P05177); experiment: Cytochrome P450 assay (P450-Glo), isoform 1A2; type: in vitro ADME
T5 construct: purchased Promega; host or cells: baculovirus-infected insect cells
T5 sequence (P05177 1-516): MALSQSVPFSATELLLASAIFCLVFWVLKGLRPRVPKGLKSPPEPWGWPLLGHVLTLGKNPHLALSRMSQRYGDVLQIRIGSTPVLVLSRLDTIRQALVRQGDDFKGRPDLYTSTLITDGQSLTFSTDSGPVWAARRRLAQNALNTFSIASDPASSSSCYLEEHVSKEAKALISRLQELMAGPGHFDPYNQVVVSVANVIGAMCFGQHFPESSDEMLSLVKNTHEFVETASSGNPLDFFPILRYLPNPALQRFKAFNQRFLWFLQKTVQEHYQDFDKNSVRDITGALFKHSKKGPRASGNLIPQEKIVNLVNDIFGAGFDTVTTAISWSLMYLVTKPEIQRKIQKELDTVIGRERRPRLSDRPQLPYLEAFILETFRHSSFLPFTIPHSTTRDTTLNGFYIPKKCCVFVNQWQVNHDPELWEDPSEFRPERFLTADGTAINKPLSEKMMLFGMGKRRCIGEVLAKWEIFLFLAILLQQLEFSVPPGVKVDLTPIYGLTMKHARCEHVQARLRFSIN
Description: as §1, §2

786-O cell line = experiment: Mitochondrial toxicity (MitoTracker Red uptake, high content imaging); type: cell-based; conditions: for IC50: read-out: mitotox. IC50
Description: Mitochondrial toxicity caused by the synthesized compounds. Uptake of Mito-
Tracker Red (chloromethyl-X-rosamine) to the 786-O cell line was detected with high content
imaging. […]

[3] = lower limit of CC50 interval, read-out: THP1 CC50 lower limit
[4] = upper limit of CC50 interval, read-out: THP1 CC50 upper limit
[5] = cytotoxic concentration for THP1 cells, read-out: CC50 THP1

T2 sequence (P08684 whole entry, canonical isoform): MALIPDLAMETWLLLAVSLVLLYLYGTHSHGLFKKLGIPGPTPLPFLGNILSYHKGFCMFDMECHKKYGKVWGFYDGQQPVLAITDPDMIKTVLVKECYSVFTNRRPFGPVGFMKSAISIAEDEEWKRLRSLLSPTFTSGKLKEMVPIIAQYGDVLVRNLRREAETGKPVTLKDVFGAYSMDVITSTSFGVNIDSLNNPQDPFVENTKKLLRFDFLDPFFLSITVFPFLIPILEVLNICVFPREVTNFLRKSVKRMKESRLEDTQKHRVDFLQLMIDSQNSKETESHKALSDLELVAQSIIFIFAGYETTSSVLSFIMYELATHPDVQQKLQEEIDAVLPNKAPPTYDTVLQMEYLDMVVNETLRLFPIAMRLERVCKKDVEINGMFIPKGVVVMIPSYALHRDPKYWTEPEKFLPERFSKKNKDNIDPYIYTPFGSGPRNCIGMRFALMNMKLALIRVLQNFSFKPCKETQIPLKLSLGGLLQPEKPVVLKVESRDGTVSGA
T1 sequence (Q12809 whole entry): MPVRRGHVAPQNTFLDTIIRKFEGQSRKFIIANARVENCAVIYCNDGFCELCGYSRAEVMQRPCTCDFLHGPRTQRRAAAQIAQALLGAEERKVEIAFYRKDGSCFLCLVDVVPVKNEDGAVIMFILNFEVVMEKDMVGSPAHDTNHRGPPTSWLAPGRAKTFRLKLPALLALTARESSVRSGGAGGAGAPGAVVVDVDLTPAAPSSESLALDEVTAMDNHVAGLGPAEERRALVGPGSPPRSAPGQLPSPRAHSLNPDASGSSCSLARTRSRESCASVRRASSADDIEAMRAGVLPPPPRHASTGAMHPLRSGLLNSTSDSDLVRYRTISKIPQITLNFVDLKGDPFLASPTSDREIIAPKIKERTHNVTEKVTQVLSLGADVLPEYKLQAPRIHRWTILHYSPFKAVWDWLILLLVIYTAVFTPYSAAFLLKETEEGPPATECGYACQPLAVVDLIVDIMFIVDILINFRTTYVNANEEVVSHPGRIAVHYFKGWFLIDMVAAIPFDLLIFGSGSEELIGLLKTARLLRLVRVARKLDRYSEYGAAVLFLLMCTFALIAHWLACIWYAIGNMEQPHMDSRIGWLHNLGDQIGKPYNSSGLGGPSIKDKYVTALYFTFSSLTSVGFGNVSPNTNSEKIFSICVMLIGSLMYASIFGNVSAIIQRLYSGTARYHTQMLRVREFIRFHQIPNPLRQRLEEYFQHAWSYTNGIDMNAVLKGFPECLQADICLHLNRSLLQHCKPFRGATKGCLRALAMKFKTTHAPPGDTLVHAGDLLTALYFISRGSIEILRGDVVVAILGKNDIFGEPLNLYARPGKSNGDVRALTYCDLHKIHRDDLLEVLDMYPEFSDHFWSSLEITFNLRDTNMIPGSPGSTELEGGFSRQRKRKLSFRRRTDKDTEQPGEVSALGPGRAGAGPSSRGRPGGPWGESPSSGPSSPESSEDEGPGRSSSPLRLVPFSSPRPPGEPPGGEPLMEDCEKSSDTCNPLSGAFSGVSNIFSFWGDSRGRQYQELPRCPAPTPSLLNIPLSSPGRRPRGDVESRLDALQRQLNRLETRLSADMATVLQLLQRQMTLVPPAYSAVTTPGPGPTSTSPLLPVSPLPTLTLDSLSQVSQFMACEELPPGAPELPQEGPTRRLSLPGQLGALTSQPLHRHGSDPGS
T3 sequence (P33261 whole entry, canonical isoform): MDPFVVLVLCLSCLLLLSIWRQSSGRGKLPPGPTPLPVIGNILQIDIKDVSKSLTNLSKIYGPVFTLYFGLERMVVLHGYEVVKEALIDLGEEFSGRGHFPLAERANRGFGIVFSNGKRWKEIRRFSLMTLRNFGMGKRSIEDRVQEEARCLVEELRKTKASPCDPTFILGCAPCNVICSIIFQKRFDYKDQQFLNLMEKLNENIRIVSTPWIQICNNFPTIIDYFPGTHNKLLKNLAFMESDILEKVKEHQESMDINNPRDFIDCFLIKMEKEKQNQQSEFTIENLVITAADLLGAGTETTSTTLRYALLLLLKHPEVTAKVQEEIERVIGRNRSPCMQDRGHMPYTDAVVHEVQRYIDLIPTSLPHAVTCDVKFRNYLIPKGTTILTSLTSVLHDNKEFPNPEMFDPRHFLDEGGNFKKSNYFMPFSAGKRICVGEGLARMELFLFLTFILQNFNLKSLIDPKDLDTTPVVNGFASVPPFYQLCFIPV
T4 sequence (P10635 whole entry, canonical isoform): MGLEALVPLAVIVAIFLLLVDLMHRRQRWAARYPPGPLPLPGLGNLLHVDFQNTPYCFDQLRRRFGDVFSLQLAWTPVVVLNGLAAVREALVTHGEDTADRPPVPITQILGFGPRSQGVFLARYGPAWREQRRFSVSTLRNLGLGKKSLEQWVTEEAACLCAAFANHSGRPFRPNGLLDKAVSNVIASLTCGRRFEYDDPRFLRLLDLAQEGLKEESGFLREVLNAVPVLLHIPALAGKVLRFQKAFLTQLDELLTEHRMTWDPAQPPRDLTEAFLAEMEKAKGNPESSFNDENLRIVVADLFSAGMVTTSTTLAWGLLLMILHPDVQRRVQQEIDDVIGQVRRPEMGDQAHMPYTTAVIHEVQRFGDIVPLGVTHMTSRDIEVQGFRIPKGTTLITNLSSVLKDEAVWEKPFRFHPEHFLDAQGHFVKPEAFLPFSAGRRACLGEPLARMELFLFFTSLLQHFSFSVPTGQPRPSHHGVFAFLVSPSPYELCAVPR

Row | SMILES | hERG IC50 (hERG) | IC50 (CYP3A4; read-out: CYP 3A4 IC50) [µM] | IC50 (CYP2C19; read-out: CYP 2C19 IC50) [µM] | IC50 (CYP2D6) [µM] | CC50 at 72 h [1, 3] [µM] | CC50 at 72 h [1, 4] [µM] | GI50 [2] [µM] | A549 cytotoxicity LC50 (50% lethal concentration) (A549 cells) | A549 cytotoxicity TGI (total growth inhibition) (A549 cells) | CYP 1A2 IC50 (CYP1A2) | IC50 (786-O cell line; Homo sapiens, 786-0) [µM] | CC50 at 72 h [1, 5] [µM] | IC50 (hERG) [µM] | mitotox. IC50 (786-O cell line) | further results
1 | Nc1nc2ccc(C(=O)NCCc3ccc(Cl)c(Cl)c3)cc2s1 [Compound 1a, 2-amino-N-(3,4-dichlorophenethyl)benzo[d]thiazole-6-carboxamide] | max | 1 | 8.5 | 0.1 | > 50 | < 100 | 27 | max | 54.4 µM | max | 27.9 | – | – | – | –
2 | Nc1nc2ccc(C(=O)N(CCc3ccc(Cl)c(Cl)c3)C3CC3)cc2s1 [Compound 1b, 2-amino-N-cyclopropyl-N-(3,4-dichlorophenethyl)benzo[d]thiazole-6-carboxamide] | max | 0.7 | 4.7 | 0.9 | > 25 | < 50 | 13.8 | max | 54.6 µM | max | 0.6 | 25 to 50 | – | – | –
3 | Nc1nc2ccc(C(=O)N(Cc3ccc(Cl)c(Cl)c3)C3CC3)cc2s1 [Compound 1c, 2-amino-N-cyclopropyl-N-(3,4-dichlorobenzyl)benzo[d]thiazole-6-carboxamide] | max | 1.3 | 2.9 | 2.5 | – | – | 24.6 | – | 61.3 µM | max | 3.8 | > 100 | – | – | LC50 (50% lethal concentration) [2]: 100 µM
4 | Nc1nc2ccc(CN(Cc3ccc(Cl)c(Cl)c3)C3CC3)cc2s1 [Compound 1d, 6-((cyclopropyl(3,4-dichlorobenzyl)amino)methyl)benzo[_d_]thiazol-2-amine] | max | 4 | 1.2 | 2.5 | > 25 | < 50 | 12.6 | – | 34.4 µM | – | 1.5 | 25 to 50 | – | – | LC50 (50% lethal concentration) [2]: 63.1 µM; IC50 (CYP1A2): 67.1 µM
5 | Nc1nc2ccc(C(=O)N(CCc3ccc(Cl)c(Cl)c3)c3ccccc3)cc2s1 [Compound 1e, 2-amino-N-(3,4-dichlorophenethyl)-N-phenylbenzo[d]thiazole-6-carboxamide] | – | – | – | – | – | – | – | – | – | – | – | > 100 | – | – | activity at 10 µM (hERG; human, at 10 µM compound concentration, read-out: hERG % residual activity): -34.8%; activity at 10 µM (CYP3A4; human, at 10 µM compound concentration, read-out: CYP 3A4 % residual activity): 26.3%; activity at 10 µM (CYP2C19; human, at 10 µM compound concentration, read-out: CYP 2C19 % residual activity): 31.1%; activity at 10 µM (CYP2D6; human, at 10 µM compound concentration, read-out: CYP 2D6 % residual activity): 59.9%; activity at 10 µM (A549 cells; Homo sapiens, A549, at 10 µM compound concentration, printed in GI50 column, read-out: A549 % residual activity): 103%; activity at 10 µM (CYP1A2; human, at 10 µM compound concentration, read-out: CYP 1A2 % residual activity): 37.7%; activity at 10 µM (786-O cell line; Homo sapiens, 786-0, at 10 µM compound concentration, read-out: mitotox. % residual activity): -33.8%
6 | Nc1nc2ccc(C(=O)NCCc3ccccc3)cc2s1 [Compound 2a, 2-amino-N-phenethylbenzo[d]thiazole-6-carboxamide] | significant blocking of hERG channels | 19.9 | 25.6 | – | – | – | – | max | max | – | – | > 100 | 4.5 | max | CYP 2D6 IC50 (CYP2D6): max; A549 cytotoxicity GI50 (50% growth inhibition) (A549 cells): max; IC50 (CYP1A2): 100 µM
7 | Nc1nc2ccc(C(=O)NCCc3cccc(Cl)c3)cc2s1 [Compound 2b, 2-amino-N-(3-chlorophenethyl)benzo[d]thiazole-6-carboxamide] | – | – | – | 0.9 | > 50 | < 100 | 54.5 | max | 95.9 µM | max | – | – | 2.8 | max | IC50 (CYP3A4): 6.5 µM; IC50 (CYP2C19): 6.3 µM
8 | Nc1nc2ccc(C(=O)NCCc3ccc(Cl)cc3)cc2s1 [Compound 2c, 2-amino-N-(4-chlorophenethyl)benzo[d]thiazole-6-carboxamide] | – | – | 4.2 | 0.5 | > 50 | < 100 | – | max | max | max | 40 | – | 4.5 | – | CYP 3A4 IC50 (CYP3A4): max; A549 cytotoxicity GI50 (50% growth inhibition) (A549 cells): max
9 | Nc1nc2ccc(C(=O)NCCc3cccc(Br)c3)cc2s1 [Compound 2d, 2-amino-N-(3-bromophenethyl)benzo[d]thiazole-6-carboxamide] | – | 5.4 | 2.9 | 5 | > 50 | < 100 | 60.4 | max | 85.5 µM | max | – | – | 3.2 | max | –
10 | Nc1nc2ccc(C(=O)NCCc3ccc(Br)cc3)cc2s1 [Compound 2e, 2-amino-N-(4-bromophenethyl)benzo[d]thiazole-6-carboxamide] | – | 4.7 | 2.5 | 0.1 | > 25 | < 50 | – | max | max | max | 0.2 | – | 3.2 | mitotoxic | A549 cytotoxicity GI50 (50% growth inhibition) (A549 cells): max
11 | Nc1nc2ccccc2n1Cc1ccc(Cl)c(Cl)c1 [I, 1-(3,4-dichlorobenzyl)-1H-benzimidazol-2-amine, reference compound] | – | 3.1 | 0.3 | – | – | – | – | – | – | – | 38.6 | 8 | 0.85 | – | IC50 (CYP1A2): 29.9 µM
